Test results: US20240051992A1, “THIOPHOSPHOPEPTIDES FOR ULTRAFAST TARGETING OF THE GOLGI APPARATUS” (BRANDEIS UNIVERSITY, priority 2021, published 2024)
Where “and” joins values, the source holds several entries; their conditions need not be identical. Identical values can stand only once. Like-named read-outs stand apart in the source and are kept apart here.

Key:
[1] = test system: alkaline phosphatase (ALP)
Protocol: Determination of Dephosphorylation Rates in vitro: To determine the dephosphorylation rates of thiophosphopeptides in vitro, pS1, pO1, pS2, pO2 solutions (PBS, pH 7.4) were prepared at concentration of 120 μM and ALP was added into the solutions to make the final concentration of ALP to 0.1 U/mL at 37° C. At the designated time, the same volume of methanol was added to eliminate the activity of ALP. LC/MS was used analyse the results.

Golgi of HeLa cells [2] = assay: CLSM fluorescence imaging of Golgi accumulation in HeLa cells; details: for Golgi fluorescence: 4 minutes
OVSAHO cells = assay: CLSM rate of fluorescence increase at Golgi, OVSAHO; format: cell-based; details: pS1 10 μM
Protocol: (§1) Cell Lines: All cell lines used (HeLa, Saos-2, SJSA-1, OVSAHO, HCC1937, HepG2, OVCAR-4, SKOV-3, MCF-7, HEK293, HS-5) were purchased from the American Type Culture Collection (ATCC, Manassas, VA, USA). HeLa, HepG2, MCF-7 and HEK293 cells were cultured in MEM medium with 10% FBS and 1% P/S (100 U mL^−1 penicillin and 100 μg mL^−1 streptomycin, Invitrogen Life Technologies). Saos-2, SKOV-3 cells were cultured in McCoy's 5A medium with 15% FBS and 1% P/S. HS-5 cells were cultured in DMEM medium with 10% FBS and 1% P/S. SJSA-1, OVSAHO, HCC1937, OVCAR-4 cells were cultured in RPMI-1640 medium with 10% FBS and 1% P/S. All the cells were cultured at 37° C. in a humidified atmosphere of 5% CO2. To determine the cytotoxicity of the compounds, cells were seeded in 96-well cell plate at 1.0×10^4 cells/well for 24 h followed by culture medium removal, and then fresh culture medium containing compounds were added. For fluorescence imaging, cells were seeded in confocal dish at 1.5×10^5 cells/dish for 24 h followed by the addition of fresh medium containing compounds, and then the fluorescence of cells were taken by ZEISS LSM 880 confocal laser scanning microscope with the 63× oil lens. […]

Saos-2 cells = assay: CLSM rate of fluorescence increase at Golgi, Saos-2; format: cell-based; details: pS1 10 μM
Protocol: as §1

OVCAR4 cells = assay: CLSM rate of fluorescence increase at Golgi, OVCAR-4; format: cell-based; details: pS1 10 μM
Protocol: as §1

HCC1937 cells = assay: CLSM rate of fluorescence increase at Golgi, HCC1937; format: cell-based; details: pS1 10 μM
Protocol: as §1

SKOV3 cells = assay: CLSM rate of fluorescence increase at Golgi, SKOV-3; format: cell-based; details: pS1 10 μM
Protocol: as §1

[3] = Transmission electron microscopy of pS1 with or without ALP; format: physicochemical; details: 5 μM, without ALP
Protocol: Transmission Electron Microscopy Experiments: The 400 mesh copper grids coated with carbon film was glowing discharged and sample solutions (5 μL of each) was placed onto the grids. After 30 seconds, the sample solution was removed, and the grids were stained by uranyl acetate (2% v/v) and allowed to dry in air. TEM images were obtained with Morgagni 268 transmission electron microscope at the HV of 80 kV with filament of 2.

SJSA-1 cells = assay: CLSM rate of fluorescence increase at Golgi, SJSA-1; format: cell-based; details: pS1 10 μM
Protocol: as §1

HEK293 cells = assay: CLSM rate of fluorescence increase at Golgi, HEK293; format: cell-based; details: pS1 10 μM
Protocol: as §1

[4] = Critical micelle concentration (CMC) determination by dynamic light scattering; format: physicochemical; details: thiophosphopeptide in deionized water, pH 7.4, DLS
Protocol: Critical micelle concentration (CMC) determination: A series of solutions of compounds (pS1, pS2), from the concentration of 0.0625 μM to 400 μM, were prepared in deionized water and adjusted the pH to 7.4. The count rates of the solutions were measured and recorded by an ALV/DLS/SLS-5000 Light Scattering System, which were converted to the intensity of scattered light and then plotted against concentrations to determine the CMC values. Then, ALP (0.1 U/mL) was added to the series of solutions and after 24 h, the same procedures were proceeded to determine CMC values of dephosphorylated pS1 and pS2 (S1 and S2).

HS-5 cells = assay: CLSM rate of fluorescence increase at Golgi, HS-5; format: cell-based; details: pS1 10 μM
Protocol: as §1

MCF7 cells = assay: CLSM rate of fluorescence increase at Golgi, MCF-7; format: cell-based; details: pS1 10 μM
Protocol: as §1

HepG2 cells = assay: CLSM rate of fluorescence increase at Golgi, HepG2; format: cell-based; details: pS1 10 μM
Protocol: as §1

Golgi of HeLa cells [5] = assay: Staining of pS2-treated HeLa cells with tetracysteine probe FlAsH-EDT2; format: cell-based; details: pS2 10 μM, 4 h; FlAsH-EDT2 1 μM, 1 h
Protocol: Staining cells with FlAsH-EDT 2: Briefly, after incubating HeLa cell lines (1.5×10^5) in 3.5 cm confocal dish for 24 h at 37° C. in a humidified atmosphere of 5% CO2, we discarded the medium and added fresh medium containing pS2 (10 μM) and incubated them together for 4 h. After 4 h, medium was removed followed by three-time wash by cell imaging buffer to eliminate FBS. Then, we added FlAsH-EDT2 solution (cell imaging buffer, 1 μM) into the confocal dish and incubated the HeLa cells at 37° C. for 1 h. Meanwhile, we prepared 1,2-Ethanedithiol (EDT) solution (cell imaging buffer, 250 μM) and after the one-hour incubation of HeLa cells with FlAsH-EDT2, FlAsH-EDT2 was discarded and EDT solution was added to the confocal dish to eliminate the unspecific binding of FlAsH-EDT2 for 10 min. Ten minutes later, EDT solution was removed and cells were washed with cell imaging buffer three times and the fluorescence images were taken by ZEISS LSM 880 confocal laser scanning microscope.

HeLa cells = assay: Cytotoxicity against HeLa cells; format: cell-based; details: 24 h
Protocol: (§2) Cell Lines: All cell lines used (HeLa, Saos-2, SJSA-1, OVSAHO, HCC1937, HepG2, OVCAR-4, SKOV-3, MCF-7, HEK293, HS-5) were purchased from the American Type Culture Collection (ATCC, Manassas, VA, USA). HeLa, HepG2, MCF-7 and HEK293 cells were cultured in MEM medium with 10% FBS and 1% P/S (100 U mL^−1 penicillin and 100 μg mL^−1 streptomycin, Invitrogen Life Technologies). Saos-2, SKOV-3 cells were cultured in McCoy's 5A medium with 15% FBS and 1% P/S. HS-5 cells were cultured in DMEM medium with 10% FBS and 1% P/S. SJSA-1, OVSAHO, HCC1937, OVCAR-4 cells were cultured in RPMI-1640 medium with 10% FBS and 1% P/S. All the cells were cultured at 37° C. in a humidified atmosphere of 5% CO2. To determine the cytotoxicity of the compounds, cells were seeded in 96-well cell plate at 1.0×10^4 cells/well for 24 h followed by culture medium removal, and then fresh culture medium containing compounds were added. For fluorescence imaging, cells were seeded in confocal dish at 1.5×10^5 cells/dish for 24 h followed by the addition of fresh medium containing compounds, and then the fluorescence of cells were taken by ZEISS LSM 880 confocal laser scanning microscope with the 63× oil lens.

[6] = Cytotoxicity against HEK293 cells; format: cell-based; details: human
Protocol: as §2

[7] = Cytotoxicity against HS-5 cells; format: cell-based; details: human
Protocol: as §2

## NBD-(β-Ala-f-f-NH—(CH2)2-phosphate [pO1, reference compound]
[1]; pH 7.4
  dephosphorylation by ALP (rate, in words): taking longer time for dephosphorylation than that of pS1
Golgi of HeLa cells [2]; 10 μM, 8 minutes
  fluorescence in cells: almost no fluorescence
Golgi of HeLa cells [2]; 100, 50, 20 μM, 4 hours
  fluorescence in cells: several scattered fluorescent puncta in cells
Golgi of HeLa cells [2]; HeLa cells
  cellular uptake and localisation: requires hours for cellular uptake and largely remains in endosomes

## NBD-(β-Ala-f-f-NH—(CH2)2-thiophosphate [pS1]
OVSAHO cells
  fluorescence intensity increase at the Golgi: increase significantly
[1]; pH 7.4
  dephosphorylation by ALP (rate, in words): fast dephosphorylation
Saos-2 cells
  fluorescence intensity increase at the Golgi: increase significantly
OVCAR4 cells
  fluorescence intensity increase at the Golgi: slightly
HCC1937 cells
  fluorescence intensity increase at the Golgi: increase significantly
SKOV3 cells
  fluorescence intensity increase at the Golgi: much slowly
[3]
  assemblies seen by TEM: micelles
SJSA-1 cells
  fluorescence intensity increase at the Golgi: increase significantly
Golgi of HeLa cells [2]; 500 nM
  time until distinctive fluorescence appears at the Golgi: 15 min
Golgi of HeLa cells [2]; 2 μM
  Golgi fluorescence: much weaker fluorescence at the Golgi
Golgi of HeLa cells [2]; 5 μM
  Golgi fluorescence: green fluorescence clearly still presents at the Golgi, but little at the ER
Golgi of HeLa cells [2]; 10 μM
  enhancement of fluorescence intensity at the Golgi from 1 minute to 8 minutes: about 7 times
  Golgi fluorescence: bright green fluorescence presents in Golgi and weak fluorescence in ER
Golgi of HeLa cells [2]; 10 μM, 0 min
  onset of fluorescence after addition: appears almost instantly
Golgi of HeLa cells [2]; 10 μM, 8 minutes
  colocalisation of fluorescence with CellLight Golgi-RFP: overlaps with the red fluorescence from all Golgi-RFP
Golgi of HeLa cells [2]; 10 μM, 20 min
  cell morphology in DIC image: well-spread HeLa cells
Golgi of HeLa cells [2]; HeLa cells treated with pS1
  concentration as low as which S1 accumulates at Golgi: 500 nM
Golgi of HeLa cells [2]; HeLa pretreated with pS1, fresh medium
  fluorescence at Golgi of pretreated cells in fresh culture medium (exocytosis): drops only slightly over time
Golgi of HeLa cells [2]; PDI inhibition
  rate of Golgi accumulation when protein disulfide isomerases (PDIs) are inhibited: slight decrease of the rate of Golgi accumulation
Golgi of HeLa cells [2]; pS1 10 μM, CytD 0.5, 1.0 μg/mL, 30 min pretreatment
  accumulation at Golgi after cytochalasin D (CytD): decreases the accumulation of S1 at Golgi in a concentration-dependent manner
Golgi of HeLa cells [2]; pS1 10 μM, DQB 20 μM, 30 min pretreatment
  rate of fluorescence increase at Golgi after ALP inhibitor DQB: reduce the rate of fluorescence increase at the Golgi
Golgi of HeLa cells [2]; pS1 10 μM, NEM 5 mM, 16 min
  accumulation at Golgi with N-ethylmaleimide (NEM): almost completely eliminates the accumulation of S1 at Golgi
Golgi of HeLa cells [2]; pS1 10 μM, PIC 4000×, 30 min pretreatment
  rate of fluorescence increase at Golgi after phosphatase inhibitor cocktail set 3 (PIC): reduce the rate of fluorescence increase at the Golgi
Golgi of HeLa cells [2]; pS1 10 μM, PLC 0.2 U, 30 min pretreatment
  rate of fluorescence increase at Golgi after phospholipase C (PLC): slightly faster increase of fluorescence in the Golgi
Golgi of HeLa cells [2]; pS1 10 μM, mβCD 5 mM, 30 min pretreatment
  rate of fluorescence increase at Golgi after methyl-β-cyclodextrin (mβCD): significantly decreases the rate of the fluorescence increase at the Golgi
Golgi of HeLa cells [2]; with BFA
  accumulation at Golgi with Golgi disruptor brefeldin A (BFA): abolishes the accumulation
HEK293 cells
  fluorescence intensity increase at the Golgi: much slowly
[4]
  critical micelle concentration (CMC): 6.0 µM
HS-5 cells
  fluorescence intensity increase at the Golgi: much slowly
MCF7 cells
  fluorescence intensity increase at the Golgi: much slowly
HepG2 cells
  fluorescence intensity increase at the Golgi: slightly

## O=C(Cc1ccc2ccccc2c1)N[C@H](Cc1ccccc1)C(=O)N[C@H](Cc1ccccc1)C(=O)NCCSP(=O)(O)O [pS2]
Golgi of HeLa cells [5]
  FlAsH-EDT2 staining of treated cells: fluorescent at the Golgi of the HeLa cells
HeLa cells; compared with S2
  selectivity against cancer cells (HeLa vs HEK293 and HS-5): more selective than S2
HeLa cells; HeLa cells
  IC50: 2800 nM and ~3000 nM
  inhibitory activity against HeLa cells relative to pO2: an order of magnitude higher than that of pO2
HeLa cells; pS2 10 μM
  rescue of HeLa cells by cell death inhibitors (Z-VAD-FMK, NAc, Nec-1, DFO, Fer-1, disulfiram): unable to rescue
[1]; 120 μM, ALP 0.1 U/mL, PBS pH 7.4, 37° C.
  dephosphorylation by ALP (rate, in words): rapid dephosphorylation
[1]; ALP 0.1 U/mL, about 16 minutes
  conversion to dephosphorylated product: nearly fully converted
[4]
  critical micelle concentration (CMC): 9.5 µM
[6]
  IC50 at 24 h: > 100000 nM
[7]
  IC50 at 24 h: > 100000 nM
